# In patent publication US20230062612A1, “SAFETY SWITCHES FOR REGULATION OF GENE EXPRESSION” (Sana Biotechnology, Inc., priority 2020, published 2023):
# Legend:
# Type in all cases: cell-based
# [1] = system: human CD47 fused to SMASH tag; experiment: SMASH degron CD47 degradation in EFS-SMASH-CD47 transduced iPSCs, flow cytometry; details: 0-10 μM asunaprevir for 48 hours, increasing doses
# Source text: Small-molecule assisted shutoff, or SMASH, is a system using the hepatitis C virus (HCV) nonstructural protein 3 (NS3) protease and elements in the NS4A protein to effectively shut off expression of a CD47 protein fused to a SMASH-tag with clinically tested HCV protease inhibitors (FIG. 2). In the absence of protease inhibitor (asunaprevir), a cryptic degron sequence is excised, leading to an unmodified gene product. By addition of asunaprevir, the NS3 protease is inhibited, leading to the degradation of newly synthesized CD47 proteins fused to the degron sequence.
# CD47 expression analysis: After incubation, cells are washed and stained with an anti-CD47 antibody conjugated to Alexa-647 (Biolegend) to detect surface expression of CD47. More specifically, 1×10^6 cells are harvested and resuspended in 100 μl cell staining-buffer (PBS, 0.1% BSA, 0.1% sodium azide) and incubated with 5 μl Alexa-Fluor 647 labelled anti-CD47 antibody for 30 min on ice. Cells are washed in cell staining buffer and subsequently analyzed by flow cytometry. […]
# human CD47 [2] = experiment: CD47 expression in control EFS-CD47 transduced and wild-type iPSCs with asunaprevir; details: for expression of CD47: 0-10 μM asunaprevir for 48 hours
# Description: CD47 expression analysis: After incubation, cells are washed and stained with an anti-CD47 antibody conjugated to Alexa-647 (Biolegend) to detect surface expression of CD47. More specifically, 1×10^6 cells are harvested and resuspended in 100 μl cell staining-buffer (PBS, 0.1% BSA, 0.1% sodium azide) and incubated with 5 μl Alexa-Fluor 647 labelled anti-CD47 antibody for 30 min on ice. Cells are washed in cell staining buffer and subsequently analyzed by flow cytometry.
# To assess the ability of the SMASH system to promote CD47 degradation, expression constructs were made containing the following expression cassettes: a) an EF1 a core promoter (EFS) operably linked to a human CD47 gene fused to a nucleic acid encoding a SMASH tag (EFS-CD47-SMASH, see FIG. 4, top); and b) a control containing the EFS promoter operably linked to the human CD47 gene alone (EFS-CD47). iPSCs were transduced with either the EFS-SMASH-CD47 expression cassette or control EFS-CD47 expression cassette by lentiviral transduction. The EFS-SMASH-CD47 transduced cells, EFS-CD47 transduced cells, and wild-type control cells were incubated in the presence of 0-10 μM of asunaprevir for 48 hours and CD47 expression was assessed using flow cytometry, as explained above.
# human CD47 [3] = experiment: CD47 expression in control EFS-CD47 transduced and wild-type iPSCs with Shield-1
# Source text: To assess the ability of the LID system to promote CD47 degradation, expression constructs were made containing the following expression cassettes: a) an EF1a core promoter (EFS) operably linked to a human CD47 gene fused to a nucleic acid encoding the LID degron domain (EFS-CD47-LID, see FIG. 6, top); and b) a control containing the EFS promoter operable linked to the human CD47 gene alone (EFS-CD47). iPSCs were transduced with either the EFS-CD47-LID expression cassette or control EFS-CD47 expression cassette by lentiviral transduction.
# (§1) The EFS-CD47-LID transduced cells, EFS-CD47 transduced cells, and wild-type control cells were incubated in the presence of 0-1,000 nM of Shield-1 for 24 hours and CD47 expression was assessed using flow cytometry.
# [4] = system: human CD47 fused to LID degron domain; experiment: LID degron CD47 degradation in EFS-CD47-LID transduced iPSCs, flow cytometry; details: 0-1,000 nM Shield-1 for 24 hours, increasing doses
# Source text: In the LID system, the protein of interest (POI e.g., CD47) is fused to a LID degron domain (also referred to as “LID domain” or “LID degron”). The LID degron domain includes the FK506- and rapamycin-binding protein (FKBP) and a peptide degron (e.g., TRGVEEVAEGVVLLRRRGN) fused to the C-terminus of the FKBP (FIG. 5). […] The peptide degron is capable of binding to the FKBP active site and is not detected by cellular degradation proteins when sequestered in the active site, thus rendering it a cryptic degron. In the absence of Shield-1, a small molecule, the POI-LID fusion protein is stable. When present, Shield-1 binds tightly to FKBP, thereby displacing the peptide degron and inducing rapid degradation of the LID and any fused partner protein (e.g., CD47). […]
# as §1
# [5] = system: EFS-CD-CD47 transduced cells; experiment: Cytosine deaminase safety switch: killing of transduced iPSCs by 5-fluorocytosine; details: 0.01-1000 μM 5-FC; increasing concentrations; FIG. 16 (middle)
# Source text: To assess the ability of cytosine deaminase to induce cell death in an […] manner, an EFS-cytosine deaminase (CD)-CD47 bicistronic cassette was transduced into wild type iPSCs by lentiviral viral transduction (see FIG. 16, top). In this cassette, a nucleic acid encoding CD is located upstream of a nucleic acid encoding CD47. A 2A sequence located between the CD and CD47 nucleic acids to ensure the two proteins are separate following translation. An EFS promoter controls expression of CD and CD47.
# EFS-CD-CD47 transduced cells and control EFS-CD transduced cells were contacted with 0.01-1000 μM concentrations of 5-fluorocytosine (5-FC) (“5FC”). Cytosine deaminase deaminates 5-FC to toxic 5-fluorouracil (5-FU), thereby killing the cells.
smiles,measurement,setting,value
C=C[C@@H]1C[C@]1(NC(=O)[C@@H]1C[C@@H](Oc2ncc(OC)c3ccc(Cl)cc23)CN1C(=O)[C@@H](NC(=O)OC(C)(C)C)C(C)(C)C)C(=O)NS(=O)(=O)C1CC1 [asunaprevir],reduction in CD47 expression,[1],≥ 50%
same,expression of CD47,"human CD47 [2]; EFS-CD47 (""CD47 only"") cells without SMASH",generally unaltered
same,off-target effects on CD47 expression,"human CD47 [2]; EFS-CD47 cells, no significant CD47 knockdown, 0-10 μM for 48 hours",no off-target effects
same,expression of CD47,"human CD47 [2]; wildtype (""WT"") cells",remained at the baseline
CC[C@H](C(=O)N1CCCC[C@H]1C(=O)O[C@H](CCc1ccc(OC)c(OC)c1)c1cccc(OCCN2CCOCC2)c1)c1cc(OC)c(OC)c(OC)c1 [Shield-1],expression of CD47,"human CD47 [3]; EFS-CD47 (""CD47 only"") cells without LID, 0-1,000 nM for 24 hours",generally unaltered
same,off-target effects on CD47 expression,"human CD47 [3]; EFS-CD47 cells, no significant CD47 knockdown, 0-1,000 nM for 24 hours",no off-target effects
same,expression of CD47,"human CD47 [3]; wildtype (""WT"") cells, 0-1,000 nM Shield-1 for 24 hours",remained at the baseline
same,reduction in CD47 expression,[4],≥ 50%
"Nc1nc(=O)[nH]cc1F [5-FC, 5-fluorocytosine]",killing of CD47 expressing EFS-CD-CD47 transduced cells,[5],observed
